Laboratory results published in ChEMBL document CHEMBL6127050, “Simultaneous inhibition of FLT3 and HDAC by novel 6-ethylpyrazine-2-Carboxamide derivatives provides therapeutic advantages in acute myelocytic leukemia” (Eur J Med Chem, 2024).

Each molecule was assayed against T1, Histone deacetylase (Homo sapiens) (UniProt Q13547+O15379+Q9UBN7+Q92769+Q9UQL6+Q8WUI4+Q9BY41+Q96DB2+P56524+Q9UKV0+Q969S8) (assay: Inhibition of HDAC in human HeLa nuclear extract using Boc-Lys(Ac)-AMC as substrate at 200 nM incubated for 0.5 hrs by microplate reader analysis relative to control).
Format: cell-free

| Compound | inhibition [%] |
| --- | --- |
| CCc1nc(C(N)=O)c(Nc2ccc(N3CCC(N4CCN(c5ncc(C(=O)NO)cn5)CC4)CC3)c(OC)c2)nc1NC1CCOCC1 | 18.7 |
| CCc1nc(C(N)=O)c(Nc2ccc(N3CCC(N4CCN(C(=O)CCCC(=O)NO)CC4)CC3)c(OC)c2)nc1NC1CCOCC1 | 27 |
| CCc1nc(C(N)=O)c(Nc2ccc(N3CCC(N4CCN(C(=O)CCCCCCC(=O)NO)CC4)CC3)c(OC)c2)nc1NC1CCOCC1 | 27 |
| CCc1nc(C(N)=O)c(Nc2ccc(N3CCC(N4CCN(C(=O)CCCCCC(=O)NO)CC4)CC3)c(OC)c2)nc1NC1CCOCC1 | 14 |
| CCc1nc(C(N)=O)c(Nc2ccc(N3CCC(N4CCN(Cc5ccc(/C=C/C(=O)NO)cc5)CC4)CC3)c(OC)c2)nc1NC1CCOCC1 | 28 |
| CCc1nc(C(N)=O)c(Nc2ccc(N3CCC(N4CCN(CCCCCCCC(=O)NO)CC4)CC3)c(OC)c2)nc1NC1CCOCC1 | 28 |
| CCc1nc(C(N)=O)c(Nc2ccc(N3CCN(CCCCCC(=O)NO)CC3)c(OC)c2)nc1NC1CCOCC1 | 25 |
| CCc1nc(C(N)=O)c(Nc2ccc(N3CCN(CCCC(=O)NO)CC3)c(OC)c2)nc1NC1CCOCC1 | 3 |
| CCc1nc(C(N)=O)c(Nc2ccc(N3CCC(N4CCN(C(=O)CCCCC(=O)NO)CC4)CC3)c(OC)c2)nc1NC1CCOCC1 | 10 |
| CCc1nc(C(N)=O)c(Nc2ccc(N3CCN(CCCCC(=O)NO)CC3)c(OC)c2)nc1NC1CCOCC1 | 1 |
| CCc1nc(C(N)=O)c(Nc2ccc(N3CCC(N4CCN(CCCCCC(=O)NO)CC4)CC3)c(OC)c2)nc1NC1CCOCC1 | 36 |
| CCc1nc(C(N)=O)c(Nc2ccc(N3CCN(CCC(=O)NO)CC3)c(OC)c2)nc1NC1CCOCC1 | 10 |
| CCc1nc(C(N)=O)c(Nc2ccc(N3CCC(N4CCN(Cc5ccc(C(=O)NO)cc5)CC4)CC3)c(OC)c2)nc1NC1CCOCC1 | 18 |

These molecules were tested against T1, Histone deacetylase (Homo sapiens) (assay: Inhibition of HDAC in human HeLa nuclear extract using Boc-Lys(Ac)-AMC as substrate at 10000 nM incubated for 0.5 hrs by microplate reader analysis relative to control).
Format: cell-free

| Compound | inhibition [%] |
| --- | --- |
| CCc1nc(C(N)=O)c(Nc2ccc(N3CCC(N4CCN(c5ncc(C(=O)Nc6ccccc6N)cn5)CC4)CC3)c(OC)c2)nc1NC1CCOCC1 | 4.3 |
| CCc1nc(C(N)=O)c(Nc2ccc(N3CCC(N4CCN(Cc5ccc(C(=O)Nc6ccccc6N)cc5)CC4)CC3)c(OC)c2)nc1NC1CCOCC1 | 27.5 |

These molecules were tested against Histone deacetylase (assay: Inhibition of HDAC in human HeLa nuclear extract using Boc-Lys(Ac)-AMC as substrate incubated for 0.5 hrs by microplate reader analysis).
Format: cell-based

| Compound | IC50 [nM] |
| --- | --- |
| CCc1nc(C(N)=O)c(Nc2ccc(N3CCN(C(=O)CCCCCCC(=O)NO)CC3)c(OC)c2)nc1NC1CCOCC1 | 147.3 |
| CCc1nc(C(N)=O)c(Nc2ccc(N3CCN(Cc4ccc(/C=C/C(=O)NO)cc4)CC3)c(OC)c2)nc1NC1CCOCC1 | 93.7 |
| CCc1nc(C(N)=O)c(Nc2ccc(N3CCN(C(=O)CCCCCC(=O)NO)CC3)c(OC)c2)nc1NC1CCOCC1 | 204.3 |
| CCc1nc(C(N)=O)c(Nc2ccc(N3CCC(N4CCN(Cc5ccc(C(=O)NCc6ccc(/C=C/C(=O)NO)cc6)cc5)CC4)CC3)c(OC)c2)nc1NC1CCOCC1 | 63 |
